Measured values from patent US7576212B2, “Thieno[2,3-B] pyridines as potassium channel inhibitors” (Xention Limited, priority 2004, dated 2009).

Legend:
human Kv1.3 = target: T1, human Kv1.3 (Homo sapiens, UniProt P22001); test: Kv1.3 whole cell patch electrophysiology (AutoPatch / conventional); assay type: cell-based; details: 1 μM compound; cells stably transfected with human Kv1.3; whole cell mode; room temperature
T1 construct: expressed in transfected cells
Experimental: Kv1.3 Autopatch Electrophysiology Method
(§1) Cells stably transfected with cDNA for human Kv1.3 were grown in Dulbecco's Modified Eagle media (DMEM) alpha supplemented with 10% Fetal Calf Serum (FCS), 20 μl/ml penicillin (5000 U/ml) streptomycin (5000 μg/ml), 10 μl/ml [100×] glutamine, and blasticidin (7.5 μg/ml). Compounds were tested on these cells using the AutoPatch technology in whole cell mode.
The external bathing solution contained (in mM): 150 NaCl, 10 KCl, 1 MgCl2, 3 CaCl2, 10 HEPES, pH 7.4 with NaOH. Patch pipettes were filled with an electrode solution of composition (in mM): 100 K-Gluconate, 20 KCl, 1 MgCl2, 1 CaCl2, 10 HEPES, 11 EGTA, 5 ATP-Na2, 2 Glutathione pH 7.2 with KOH.
(§2) Compounds were dissolved in DMSO (100%) and made up in the external bather at a concentration of 1 μM. All experiments were conducted at room temperature (22-24° C.).
(§3) A cell suspension (10 ml), with a density of 100,000 cells/ml, was aliquoted into a 15 ml centrifuge tube and transferred to an incubator (37° C., 5% CO2) for approximately one hour before use. Following 60 min incubation, a tube was taken and centrifuged at 1000 rpm for 4 mins at room temperature. 9.5 ml supernatant was thence discarded, leaving a cell pellet at the bottom of the tube. The pellet was then resuspended using 100 μl of cold (4° C.), filtered (0.22 μm), 0.2% BSA/bather solution (0.02 g BSA/10 ml bather). The bottom of the tube was manually agitated gently until the solution became cloudy with cells. The 100 μl cell resuspension solution was then stored on the bench at 4° C. (using a Peltier-based temperature control device) until used.
(§4) A length of capillary glass (1B150F-4, WPI) was dipped into the cell suspension solution, such that ˜3 cm column of fluid was taken up by capillary action. A Ag/AgCl wire was dropped into the non-dipped end of the capillary also. The outside of the solution-filled end of the capillary was then dried and the capillary was loaded into the AutoPatch™. Borosilicate glass patch pipettes (from 1.5 mm OD, thin-walled filamented, GC150-TF capillary glass, Harvard) were pulled using a DMZ pipette puller (Zeitz Instruments), and were back-filled using the internal pipette solution, being careful that no bubbles remain at the tip or in the body of the pipette. Patch pipettes typically had resistances of 2.3-3.5 MΩ. Once filled, the pipette tip and a proportion of the shaft (˜15mm) were dipped into Sigmacote (Sigma). The recording pipette was then loaded into the AutoPatch™. Automated patch-clamping was initiated by the operator, but thereafter AutoPatch.exe continued the experiment providing that pre-set conditions and criteria were satisfied.
(§5) Whole cell patch-clamp recordings were made using the AutoPatch™ rig, which incorporated an EPC9 or EPC10 amplifier (HEKA, Germany) under control of Pulse software (v8.54 or v8.76, HEKA, Germany), a motion controller with 2 translators (Newport, UK), valve controller (VF1) and a c-level suction device all at room temperature (22-24° C.). This equipment was completely under the control of AutoPatch.exe and operator intervention was only made when there was a requirement to refill the drug reservoirs or to prevent the loss of a cell due to a technical error. Cells with an Rseries greater than 18 MΩ were discounted from the experiment.
(§6) Qualification stages prior to perfusion and drug application ensured that the observed current met the criteria for the experiment. Only those cells with an IK>400 pA were used for experiments. Cells were continuously perfused with external solution at a flow rate of 1.8-2 ml/minute. […] Online analysis of the hKv1.3 current during the application of compounds was performed by the AutoPatch™ software. Voltage-step protocols and analysis of data was performed as described for conventional electrophysiology.
Electrophysiology voltage-step protocols and analysis of data was performed as follows. Data was sampled at 5 kHz, and filtered with a −3 dB bandwidth of 2.5 kHz. […]

human Kv1.5 = target: T2, human Kv1.5 (Homo sapiens, UniProt P22460); test: Kv1.5 whole cell patch electrophysiology (AutoPatch / conventional); assay type: cell-based; details: 1 μM compound; cells stably transfected with human Kv1.5; whole cell mode; room temperature
T2 construct: expressed in transfected cells
Experimental: Kv1.5 Autopatch Electrophysiology Method
as §1, with “Kv1.5 (in pEF6::VA-His-TOPO)” for “Kv1.3”
The external bathing solution contained (in mM): 150 NaCl, 10 KCl, 1 MgCl2, 3 CaCl2, 10 HEPES, pH 7.4 with NaOH. Patch pipettes were filled with an electrode solution of composition (in mM): 160 KCl, 0.5 MgCl2, 10 HEPES, 1 EGTA, pH 7.4 with KOH.
as §2, §3
as §4, with “(˜15 mm)” for “(˜15mm)”
as §5
as §6, with “IK>500” for “IK>400”, “hKv1.5” for “hKv1.3”
Electrophysiology voltage-step protocols and analysis of data was performed as follows. Data was sampled at 5kHz, and filtered with a −3 dB bandwidth of 2.5 kHz.
Cells were held at a voltage of −80 mV. […]

T1 sequence (P22001 whole entry): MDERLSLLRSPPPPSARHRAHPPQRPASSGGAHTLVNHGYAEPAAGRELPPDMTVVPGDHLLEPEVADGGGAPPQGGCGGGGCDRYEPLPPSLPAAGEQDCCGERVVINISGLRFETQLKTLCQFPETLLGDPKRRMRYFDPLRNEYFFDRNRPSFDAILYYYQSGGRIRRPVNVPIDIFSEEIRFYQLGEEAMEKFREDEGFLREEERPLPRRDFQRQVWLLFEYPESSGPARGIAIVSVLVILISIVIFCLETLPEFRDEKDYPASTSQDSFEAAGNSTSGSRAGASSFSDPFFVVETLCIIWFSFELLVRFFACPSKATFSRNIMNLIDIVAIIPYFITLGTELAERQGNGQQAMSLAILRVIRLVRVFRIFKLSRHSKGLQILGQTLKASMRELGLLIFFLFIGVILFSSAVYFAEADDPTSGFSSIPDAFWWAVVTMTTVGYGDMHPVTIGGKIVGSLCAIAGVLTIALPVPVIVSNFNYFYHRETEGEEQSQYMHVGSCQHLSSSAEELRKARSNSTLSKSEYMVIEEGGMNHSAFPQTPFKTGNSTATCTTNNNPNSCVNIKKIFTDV
T2 sequence (P22460 whole entry): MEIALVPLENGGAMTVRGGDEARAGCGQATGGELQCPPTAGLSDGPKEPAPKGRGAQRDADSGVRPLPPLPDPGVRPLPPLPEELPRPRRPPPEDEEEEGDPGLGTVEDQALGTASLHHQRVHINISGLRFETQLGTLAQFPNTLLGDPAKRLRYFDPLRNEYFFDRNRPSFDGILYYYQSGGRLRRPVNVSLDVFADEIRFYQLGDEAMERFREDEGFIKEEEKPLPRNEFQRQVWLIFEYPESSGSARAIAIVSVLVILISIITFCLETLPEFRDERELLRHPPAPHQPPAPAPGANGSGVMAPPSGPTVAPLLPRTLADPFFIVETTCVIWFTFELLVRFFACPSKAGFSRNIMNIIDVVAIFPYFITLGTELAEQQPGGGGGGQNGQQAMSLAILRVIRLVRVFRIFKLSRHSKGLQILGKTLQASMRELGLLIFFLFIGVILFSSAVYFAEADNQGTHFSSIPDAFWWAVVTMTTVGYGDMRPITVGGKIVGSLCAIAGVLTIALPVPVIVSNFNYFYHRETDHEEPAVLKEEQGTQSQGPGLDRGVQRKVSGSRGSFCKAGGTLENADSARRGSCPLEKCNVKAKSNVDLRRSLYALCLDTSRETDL

SMILES | inhibition at 1 µM (human Kv1.3) [%] | inhibition at 1 µM (human Kv1.5) [%]
Clc1cc(NCc2ccccn2)c2c(-c3ccccc3)csc2n1 [Example 19, (6-Chloro-3-phenyl-thieno[2,3-b]pyridin-4-yl)-pyridin-2-ylmethyl-amine] | 72 | 88
Clc1cc(NCc2ccccn2)nc2scc(-c3ccccc3)c12 [Example 20, (4-Chloro-3-phenyl-thieno[2,3-b]pyridin-6-yl)-pyridin-2-ylmethyl-amine] | 99 | 93
Fc1ccc(-c2csc3nc(Cl)cc(NCc4ccccn4)c23)cc1 [Example 21, [6-Chloro-3-(4-fluoro-phenyl)-thieno[2,3-b]pyridin-4-yl]-pyridin-2-ylmethyl-amine] | 71 | 59
Cc1cccc(CNc2cc(Cl)nc3scc(-c4ccc(F)cc4)c23)n1 [Example 22, [6-Chloro-3-(4-fluoro-phenyl)-thieno[2,3-b]pyridin-4-yl]-(6-methyl-pyridin-2-ylmethyl)-amine] | 78 | 95
OCCNc1cc(NCc2ccccn2)c2c(-c3ccccc3)csc2n1 [Example 24, 2-{3-Phenyl-4-[(pyridin-2-ylmethyl)-amino]-thieno[2,3-b]pyridin-6-ylamino}-ethanol] | 93 | 79
OCCN(CCO)c1cc(NCc2ccccn2)c2c(-c3ccccc3)csc2n1 [Example 25, 2-((2-Hydroxy-ethyl)-{3-phenyl-4-[(pyridin-2-ylmethyl)-amino]-thieno[2,3-b]pyridin-6-yl}-amino)-ethanol] | 82 | 81
OCCN(CCO)c1cc(NCc2ccccn2)c2c(-c3ccc(F)cc3)csc2n1 [Example 26, 2-[{3-(4-Fluoro-phenyl)-4-[(pyridin-2-ylmethyl)-amino]-thieno[2,3-b]pyridin-6-yl}-(2-hydroxy-ethyl)-amino]-ethanol] | 45 | 91
OCCNc1cc(NCc2ccccn2)c2c(-c3ccc(F)cc3)csc2n1 [Example 27, 2-{3-(4-Fluoro-phenyl)-4-[(pyridin-2-ylmethyl)-amino]-thieno[2,3-b]pyridin-6-ylamino}-ethanol] | 72 | 55
Cc1cccc(CNc2cc(N(CCO)CCO)nc3scc(-c4ccc(F)cc4)c23)n1 [Example 28, 2-[{3-(4-Fluoro-phenyl)-4-[(6-methyl-pyridin-2-ylmethyl)-amino]-thieno[2,3-b]pyridin-6-yl}-(2-hydroxy-ethyl)-amino]-ethanol] | 20 | 21
Cc1cccc(CNc2cc(NCCO)nc3scc(-c4ccc(F)cc4)c23)n1 [Example 29, 2-{3-(4-Fluoro-phenyl)-4-[(6-methyl-pyridin-2-ylmethyl)-amino]-thieno[2,3-b]pyridin-6-ylamino}-ethanol] | 62 | 31
c1ccc(-c2csc3nccc(NCc4ccccn4)c23)cc1 [Example 35, (3-Phenyl-thieno[2,3-b]pyridin-4-yl)-pyridin-2-ylmethyl-amine] | 45 | 62
Fc1ccc(-c2csc3nccc(NCc4ccccn4)c23)cc1 [Example 36, [3-(4-Fluoro-phenyl)-thieno[2,3-b]pyridin-4-yl]-pyridin-2-ylmethyl-amine] | 32 | 20
Cc1cccc(CNc2ccnc3scc(-c4ccc(F)cc4)c23)n1 [Example 37, [3-(4-Fluoro-phenyl)-thieno[2,3-b]pyridin-4-yl]-(6-methyl-pyridin-2-ylmethyl)-amine] | 30 | 36
OCCc1cc(NCc2ccccn2)c2c(-c3ccccc3)csc2n1 [Example 43, 2-{3-Phenyl-4-[(pyridin-2-ylmethyl)-amino]-thieno[2,3-b]pyridin-6-yl}-ethanol] | 20 | 94
OCC(CO)c1cc(NCc2ccccn2)c2c(-c3ccccc3)csc2n1 [Example 44, 2-{3-Phenyl-4-[(pyridin-2-ylmethyl)-amino]-thieno[2,3-b]pyridin-6-yl}-propane-1,3-diol] | 8 | 82
